Reference: patent US20260217704A1, “INDOLONE DERIVATIVE HAVING IRAK4 INHIBITORY ACTIVITY, AND PREPARATION METHOD THEREFOR AND USE THEREOF” (DOVETREE MEDICINES UNUS, INC., priority 2023, published 2026)

Biological target: T1, IRAK4 kinase protein (Homo sapiens, UniProt Q9NWZ3)
T1 sequence (Q9NWZ3 1-460): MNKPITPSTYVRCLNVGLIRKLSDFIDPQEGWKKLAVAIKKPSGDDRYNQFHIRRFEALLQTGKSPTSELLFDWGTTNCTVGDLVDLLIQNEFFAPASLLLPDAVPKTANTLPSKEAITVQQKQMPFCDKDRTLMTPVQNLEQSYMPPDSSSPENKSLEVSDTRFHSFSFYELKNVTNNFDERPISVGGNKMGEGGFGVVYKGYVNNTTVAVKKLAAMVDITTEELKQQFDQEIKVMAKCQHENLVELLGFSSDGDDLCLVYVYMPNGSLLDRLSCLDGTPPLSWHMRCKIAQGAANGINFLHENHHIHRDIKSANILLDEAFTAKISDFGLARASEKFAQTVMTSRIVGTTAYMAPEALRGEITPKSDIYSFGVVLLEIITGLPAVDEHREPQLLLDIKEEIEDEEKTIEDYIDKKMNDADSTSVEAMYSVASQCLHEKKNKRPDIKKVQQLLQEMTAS
Test: IRAK4 kinase inhibition assay (Cisbio HTRF KinEASE-STK S1 kit)
Assay type: biochemical
Settings: IRAK4 10 nM, ATP 200 μM, 37° C. 2 hours, read-out: IRAK4 inhibitory activity IC50
Description: Cisbio HTRF KinEASE-STK SI kit (62S1PEB) was used in this experiment. The experiment/detection buffer, STK Substrate 1-biotin, Streptavidin-XL665, and STK Antibody-Crypatete were all contained in the kit.
The compound/DMSO was added to a 384 plate (PerkinElmer 6008280) using Echo 665. Subsequently, 5 μL of IRAK4 kinase protein dissolved in an experimental buffer [1 volume of 5×kinase buffer+20 mM magnesium chloride (Sigma) solution+1 mM DTT (Alfa Aesar) solution+4 volumes of deionized water] at 2 folds reaction concentration was added (final concentration: 10 nM). The shallow well plate was sealed, shaken, and then centrifuged at 1000 rpm for 1 minute and incubated at room temperature for 5 minutes. 5 μL of a 1:1 mixture of STK Substrate 1-biotin (final concentration: 1 μM) and ATP (Sigma A1852) (final concentration: 200 μM) at 2 folds reaction concentration prepared with the experimental buffer was then added. The shallow well plate was sealed, shaken, then centrifuged at 1000 rpm for 1 minute, and incubated at 37° C. for 2 hours. Subsequently, 10 μL of a 1:1 mixed solution of Streptavidin-XL665 (final concentration: 62.5 nM) and STK-antibody-cryptate dissolved with the detection buffer was added. The shallow well plate was sealed, shaken, then centrifuged at 1000 rpm for 1 minute, and incubated at room temperature for 1 hour. Subsequently, numerical values were read at the wavelength of 620 nm/665 nm by a microplate reader. The data were analyzed by Prism 9.3 software, and the IC50 value of IRAK4 kinase inhibition was fitted by four-parameter Logistic equation. After detection, the compound of the present disclosure has a better IRAK4 kinase inhibitory activity.

| IC50 | Compound |
| --- | --- |
| < 100 nM | O=C1Nc2ccc(S(=O)(=O)Nc3ccc(F)cc3)cc2/C1=C/c1cc2ccc(N3CCNCC3)cc2[nH]1 [Compound 7] |
| < 100 nM | O=C1Nc2ccc(S(=O)(=O)Nc3ccc(F)cc3)cc2/C1=C\c1cc2cc(N3CCNCC3)ccc2o1 [Compound 3] |
| < 100 nM | Cc1c(/C=C2\C(=O)Nc3ccc(S(=O)(=O)Nc4ccc(F)cc4)cc32)[nH]c2cc(N3CCNCC3)ccc12 [Compound 8] |

Second part, the compound before the results:

| Compound | IC50 |
| --- | --- |
| O=C1Nc2ccc(S(=O)(=O)Nc3ccc(F)cc3)cc2/C1=C/c1cn(C2CCCCC2)nc1C(F)F [Compound 2] | 100 to 500 nM |
| Cc1ccc(/C=C2/C(=O)Nc3ccc(S(=O)(=O)Nc4ccc(F)cc4)cc32)o1 [Compound 1] | > 1000 nM |
| CCNS(=O)(=O)c1ccc2c(c1)/C(=C\c1cc3cc(N4CCNCC4)ccc3o1)C(=O)N2 [Compound 4] | 100 to 500 nM |
| O=C1Nc2ccc(S(=O)(=O)Nc3ccc(F)cc3)cc2/C1=C/Nc1cnn2cc(N3CCNCC3)ccc12 [Compound 6] | 500 to 1000 nM |
| O=C1Nc2ccc(S(=O)(=O)Nc3ccc(F)cc3)cc2/C1=C/Nc1cn(C2CCCCC2)nc1C(F)F [Compound 5] | < 100 nM |
